Laboratory results taken from US20230250096A1, “SUBSTITUTED PHENYL-1H-PYRROLO[2,3-c] PYRIDINE DERIVATIVES” (Janssen Pharmaceutica NV, priority 2021, published 2023).
Read-outs that look alike come from different tables or passages of the source.

Tests used:
[1] = system: MOLM14 cells; experiment: Proliferation assay (spheroid confluence, 8 days), MOLM14; type: cell-based, human; details: read-out: spheroid assay_MOLM14 IC50
Experimental: The anti-proliferative effect of menin/MLL protein/protein interaction inhibitor test compounds was assessed in human leukemia cell lines. The cell line MOLM14 harbors a MLL translocation and expresses the MLL fusion protein MLL-AF9, respectively, as well as the wildtype protein from the second allele. OCI-AML3 cells that carry the NPM1c gene mutation were also tested. […] KO-52 was used as a control cell line containing two MLL (KMT2A) wildtype alleles in order to exclude compounds that display general cytotoxic effects.
MOLM14 cells were cultured in RPMI-1640 (Sigma Aldrich) supplemented with 10% heat-inactivated fetal bovine serum (HyClone), 2 mM L-glutamine (Sigma Aldrich) and 50 μg/ml gentamycin (Gibco). KO-52 and OCI-AML3 cell lines were propagated in alpha-MEM (Sigma Aldrich) supplemented with 20% heat-inactivated fetal bovine serum (HyClone), 2 mM L-glutamine (Sigma Aldrich) and 50 μg/ml gentamycin (Gibco).
In order to assess the anti-proliferative effects, 200 MOLM14 cells, 200 OCI-AML3 cells or 300 KO-52 cells were seeded in 200 μl media per well in 96-well round bottom, ultra-low attachment plates (Costar, catalogue number 7007). Cell seeding numbers were chosen based on growth curves to ensure linear growth throughout the experiment. Test compounds were added at different concentrations and the DMSO content was normalized to 0.3%. Cells were incubated for 8 days at 37° C. and 5% CO2. Spheroid like growth was measured in real-time by live-cell imaging (IncuCyteZOOM, Essenbio, 4×objective) acquiring images at day 8. Confluence (%) as a measure of spheroid size was determined using an integrated analysis tool.
In order to determine the effect of the test compounds over time, the confluence in each well as a measure of spheroid size, was calculated. Confluence of the highest dose of a reference compound was used as baseline for the LC (Low control) and the confluence of DMSO treated cells was used as 0% cytotoxicity (High Control, HC).
Absolute IC50 values were calculated as percent change in confluence as follows:
LC=Low Control: cells treated with e.g. 1 μM of the cytotoxic agent staurosporin, or e.g. cells treated with a high concentration of an alternative reference compound
HC=High Control: Mean confluence (%) (DMSO treated cells)
% Effect=100−(100*(Sample−LC)/(HC−LC))
GraphPad Prism (version 7.00) was used to calculate the IC50. Dose-response equation was used for the plot of % Effect vs Log10 compound concentration with a variable slope and fixing the maximum to 100% and the minimum to 0%.

[2] = target: T1, menin/MLL (terbium chelate-labeled menin, FITC-MBM1 peptide) (Homo sapiens, UniProt O00255, T541A); experiment: Menin/MLL homogenous time-resolved fluorescence (HTRF) assay; type: binding; details: 30 min incubation
T1 construct: Menin (a.a 1-610-6xhis tag, 2.3 mg/mL in 20 mM Hepes)
T1 sequence (O00255 with tags, fused parts or gaps T541A): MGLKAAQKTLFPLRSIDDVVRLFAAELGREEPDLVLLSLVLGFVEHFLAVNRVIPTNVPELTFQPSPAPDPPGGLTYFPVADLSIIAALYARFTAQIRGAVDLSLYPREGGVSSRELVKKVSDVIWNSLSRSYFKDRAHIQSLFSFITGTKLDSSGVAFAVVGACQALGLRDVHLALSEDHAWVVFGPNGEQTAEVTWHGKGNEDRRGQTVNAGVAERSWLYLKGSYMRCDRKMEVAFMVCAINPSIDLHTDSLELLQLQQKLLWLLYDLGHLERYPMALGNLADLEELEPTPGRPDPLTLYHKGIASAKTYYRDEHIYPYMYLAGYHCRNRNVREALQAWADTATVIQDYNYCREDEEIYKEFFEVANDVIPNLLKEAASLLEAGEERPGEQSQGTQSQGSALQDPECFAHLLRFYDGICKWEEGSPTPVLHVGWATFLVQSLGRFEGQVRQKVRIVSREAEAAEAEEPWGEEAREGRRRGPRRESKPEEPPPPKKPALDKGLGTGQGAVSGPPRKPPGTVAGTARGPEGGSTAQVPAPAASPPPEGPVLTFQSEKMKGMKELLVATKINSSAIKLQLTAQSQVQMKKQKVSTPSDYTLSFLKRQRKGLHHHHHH
Summary of the method: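 Terbium-labeled menin (a.a. 1-610, His-tagged; […]) pre-incubated 30 min with compound, then 75 nM FITC-MBM1 peptide added for 15 min at ambient temperature in Tris pH 7.5 buffer, 0.5% DMSO. HTRF 520/490 nm ratio read; IC50 from 11-point four-fold titrations, typically from 10 μM.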

[3] = system: MEIS1 mRNA expression; experiment: MEIS1 mRNA expression assay (Quantigene Singleplex) in MOLM14 cells; type: cell-based, human; details: 48 hours incubation
Summary of the method: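 MOLM14 cells, 3,750/well, exposed to increasing compound concentrations for 48 h. MEIS1 mRNA measured by QuantiGene Singleplex branched-DNA hybridization (lysis 45 min, hybridization 18–22 h, both 55 °C), normalized to RPL28. IC50 fitted to background-corrected fold change versus DMSO.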

Row | Compound | IC50 ([1]; Homo sapiens, MOLM-14, MOLM14) [nM] | IC50 [2] [nM] | IC50 ([3]; Homo sapiens, MOLM-14, 48 h) [nM] | IC50 ([1]; MOLM14) [nM] | IC50 [3] [nM]
1 | CC(=O)N1CC([C@H](C)N2CC[C@@H](Cc3cn(-c4ccc(F)cc4C(=O)N(C)C(C)C)c4cncc(C)c34)C2)C1 (single isomer, unassigned) [Compound 176] | 46 | 0.2 | 306 | – | –
2 | Cc1cncc2c1c(C[C@@H]1CCN(C[C@@H]3CCCCN3)C1)cn2-c1ccc(F)cc1C(=O)N(C)C(C)C [Compound 148] | 88 | 0.086 | 238 | – | –
3 | CC(=O)N1CCC(CN2CC[C@@H](Cc3cn(-c4ccc(F)cc4C(=O)N4CCC[C@@H]4CO)c4cncc(C)c34)C2)CC1 [Compound 322] | 323 | 0.152 | ~547 | – | –
4 | [2H]C([2H])([2H])N(C(=O)c1cc(F)ccc1-n1cc(C[C@@H]2CCN(CC3CCN(C(C)=O)CC3)C2)c2c(C)cncc21)C(C)C [Compound 314] | 6 | 0.055 | 19 | – | –
5 | COCC1CCCN1C(=O)c1cc(F)ccc1-n1cc(C[C@@H]2CCN(CC3CCN(C(C)=O)CC3)C2)c2c(C)cncc21 (stereo partly drawn) [Compound 321] | 232 | 0.257 | 413 | – | –
6 | Cc1cncc2c1c(CC1CCN(CC3CCN(C(=O)C(C)(C)C#N)CC3)C1)cn2-c1ccc(F)cc1C(=O)N(C)C(C)C (single isomer, unassigned) [Compound 126] | 18 | 0.091 | 32 | – | –
7 | CC(=O)N1CCC(CN2CC[C@@H](Cc3cn(-c4ccc(F)cc4C(=O)N(C)C(C)C)c4cncc(C)c34)C2)CC1 [Compound 51] | 8 | 0.042 | – | – | –
8 | CC(=O)N1CCC(CN2CC[C@@H](Cc3cn(-c4ccc(F)cc4C(=O)N4CCC[C@H]4CO)c4cncc(C)c34)C2)CC1 [Compound 323] | 142 | 0.08 | ~146 | – | –
9 | Cc1cncc2c1c(C[C@@H]1CCN(C3CCN(S(C)(=O)=O)CC3)C1)cn2-c1ccc(F)cc1C(=O)N(C)C(C)C [Compound 161] | 53 | 0.167 | 256 | – | –
10 | CON(C)C(=O)N1CCC(CN2CC[C@@H](Cc3cn(-c4ccc(F)cc4C(=O)N(C)C(C)C)c4cncc(C)c34)C2)CC1 [Compound 173] | 5 | 0.056 | 32 | – | –
11 | CNC(=O)[C@H]1CC[C@H](CN2CC([C@@H](C)c3cn(-c4ccc(F)cc4C(=O)N(C)C(C)C)c4cncc(C)c34)C2)CC1 (single isomer, unassigned) [Compound 164a] | 154 | 0.209 | 249 | – | –
12 | CN=[S@@](=O)(c1cc(F)ccc1-n1cc(CC2CN(CC3CCOCC3)C2)c2c(C)cncc21)C(C)C (single isomer, unassigned) [Compound 166b] | 120 | 0.226 | 256 | – | –
13 | Cc1cncc2c1c(CC1CN(C[C@H]3CC[C@H](C(=O)NCCC#N)CC3)C1)cn2-c1ccc(F)cc1C(=O)N(C)C(C)C [Compound 155] | 49 | 0.051 | 54 | – | –
14 | COC(=O)[C@H]1CC[C@H](CN2CC[C@@H](Cc3cn(-c4ccc(F)cc4C(=O)N(C)C(C)C)c4cncc(C)c34)C2)CC1 [Compound 154] | 91 | 0.14 | 244 | – | –
15 | Cc1cncc2c1c(C[C@H]1CCN(CC3CCN(C(=O)N(C)C)CC3)C1)cn2-c1ccc(F)cc1C(=O)N(C)C(C)C [Compound 170] | 14 | 0.155 | 79 | – | –
16 | CNC(=O)[C@H]1CC[C@H]([C@H](C)N2CC(Cc3cn(-c4ccc(F)cc4C(=O)N(C)C(C)C)c4cncc(C)c34)C2)CC1 (single isomer, unassigned) [Compound 163] | 456 | 0.192 | ~623 | – | –
17 | Cc1cncc2c1c(CC1CCN(CC3(C)CCN(C(=O)CO)CC3)C1)cn2-c1ccc(F)cc1C(=O)N(C)C(C)C (single isomer, unassigned) [Compound 123] | 16 | 0.052 | 31 | – | –
18 | COCC(=O)N1CCC(C(C)N2CCC(Cc3cn(-c4ccc(F)cc4C(=O)N(C)C(C)C)c4cncc(C)c34)C2)CC1 (single isomer, unassigned) [Compound 117b] | – | 0.27 | – | 300 | 411
19 | Cc1cncc2c1c(C[C@@H]1CCN(C[C@H]3CCNC(=O)CC3)C1)cn2-c1ccc(F)cc1C(=O)N(C)C(C)C (single isomer, unassigned) [Compound 169a] | 17 | 0.061 | 15 | – | –
20 | CN=[S@](=O)(c1cc(F)ccc1-n1cc(C[C@H]2CCN(CC3CCN(C(C)=O)CC3)C2)c2c(C)cncc21)C(C)C (single isomer, unassigned) [Compound 128b] | 40 | 0.045 | 65 | – | –
21 | Cc1cncc2c1c(C[C@H]1CCN([C@H](C)C3CCOCC3)C1)cn2-c1ccc(F)cc1C(=O)N(C)C(C)C (single isomer, unassigned) [Compound 49a] | 113 | 0.227 | 221 | – | –
22 | COCCNC(=O)[C@H]1CC[C@H](CN2CC(Cc3cn(-c4ccc(F)cc4C(=O)N(C)C(C)C)c4cncc(C)c34)C2)CC1 [Compound 158] | 6 | 0.045 | 24 | – | –
23 | Cc1cncc2c1c(CC1CN(CC3CCOCC3)C1)cn2-c1ccc(F)cc1[S@](=N)(=O)C(C)C (single isomer, unassigned) [Compound 167a] | 210 | 0.19 | > 1000 | – | –
24 | Cc1cncc2c1c(C[C@H]1CCN(CC3CCC(=O)NC3)C1)cn2-c1ccc(F)cc1C(=O)N(C)C(C)C (mixture of isomers) [Compound 88] | 96 | 0.093 | 140 | – | –
25 | CC(=O)N1CC([C@@H](C)N2CC[C@@H](Cc3cn(-c4ccc(F)cc4C(=O)N(C)C(C)C)c4cncc(C)c34)C2)C1 (single isomer, unassigned) [Compound 175] | 234 | 1.33 | ~1050 | – | –
26 | CN=[S@](=O)(c1cc(F)ccc1-n1cc(CC2CN(CC3CCOCC3)C2)c2c(C)cncc21)C(C)C (single isomer, unassigned) [Compound 166a] | 49 | 0.084 | 38 | – | –
27 | CC(=O)N1CCC(C)(CN2CC[C@H](Cc3cn(-c4ccc(F)cc4C(=O)N(C)C(C)C)c4cncc(C)c34)C2)CC1 (single isomer, unassigned) [Compound 122] | 12 | 0.05 | 18 | – | –
28 | CC(=O)N1CCC(C)C(N2CC[C@@H](Cc3cn(-c4ccc(F)cc4C(=O)N(C)C(C)C)c4cncc(C)c34)C2)C1 (stereo partly drawn) [Compound 243] | – | 0.097 | – | – | 37
29 | Cc1cncc2c1c(CC1CN(CC3CCOCC3)C1)cn2-c1ccc(F)cc1C(=O)N1CCC(O)C1(C)C (stereo not drawn) [Compound 272] | – | 0.31 | ~270 | – | –
